# Test results taken from patent publication US11110105B2, “Compounds, composition and uses thereof for treating cancer” (INSTITUT GUSTAVE ROUSSY, priority 2017, dated 2021).
# What was measured:
# [1] = MTT assay on MCA205 cell line; format: cell-based, mouse; conditions: mouse, MCA205 sarcoma cells, MTT, read-out: % cell viability (±SEM)
# Procedure: (§1) RNA was extracted and qRT-PCR was performed with primers amplifying the unspliced (intron) and the spliced (exon) globin-SL8-intron RNA. Data are given as mean ±SEM of the ratio of 2^−ΔΔCt intron and 2^−ΔΔCt exon of at least three independent experiments. […] Data are express as mean ±SEM of the percentage of viable cells compared to the control condition of at least three independent experiments. *P<0.05, **P<0.01, ***P<0.001 (unpaired student t test).
# (§2) MCA205 mouse sarcoma cell line is cultured at 37° C. under 5% CO2 in RPMI 1640 medium (Life Technologies) in the presence of 1% glutamine, 1% sodium pyruvate, 1% non-essential amino-acids, 1% penicillin/streptomycin and 10% FBS (Life Technologies) under standard conditions. B16F10 mouse melanoma cell line, MRC5 human fibroblast cell line and A375 human melanoma cell line are cultured at 37° C. under 5% CO2 in DMEM medium (Life Technologies) containing 1% glutamine, 1% penicillin/streptomycin and 10% FCS under standard conditions. A549 human lung carcinoma cell line is cultured at 37° C. under 5% CO2 in DMEM/F12+Glutamax I in the presence of 1% Hepes, 1% sodium pyruvate and 10% FBS under standard conditions. Stable MCA205-Globin-SL8-intron cell line are cultured under the same condition as MCA205 cell line with additional 2 mg/ml G418 (geneticin from Life Technologies) for selection. Stable B16F10-Globin-SL8-intron cell line are cultured under the same condition as B16F10 cell line with additional 2 mg/ml G418 (geneticin from Life Technologies) for selection. The SL8/Kb-specific (B3Z) T-cell reporter hybridoma are cultured at 37° C. under 5% CO2 in RPMI 1640 medium (Life Technologies) in the presence of 1% glutamine, 0.1% β-galactosidase, 1% penicillin/streptomycin and 10% FCS under standard conditions.
# (§3) MTT assay on MCA205 and B16F10 cell lines treated with 6.25 μM, 15 μM or 25 μM of isoginkgetin. Dare are given as the mean of the percentage of cell viability ±SEM from at least three independent experiments.
# [2] = tested on: MCA205 mouse sarcoma cell line; assay: MTT assay on MCA205 cell line; format: cell-based; conditions: MCA205 WT cells, 15 μM or 35 μM
# Procedure: as §1, §2, §3
# [3] = tested on: mouse melanoma cell line B16F10; assay: B3Z SL8-specific T-cell activation assay, B16F10; format: cell-based; conditions: B16F10, Globin-intron-SL8; 15 μM or 35 μM
# Procedure: B3Z SL8-specific T-cell activation after co-culture with (A) human melanoma A375, human lung carcinoma A549 or normal human lung fibroblast MRC5 cell lines, all transiently expressing the intron-derived SL8 peptide and the H2-K^b molecules and treated upstream with 2,5 μM or 6,25 μM isoginkgetin for 18 hours; or with (B) mouse sarcoma MCA205 or mouse melanoma B16F10 cell lines both transiently expressing the intron-derived SL8 peptide and treated upstream with 6,25 μM, 15 μM or 25 μM isoginkgetin for 18 hours. […]
# Data are given as mean ±SEM. *P<0.05, **P<0.01, ***P<0.001 (unpaired student t test). […] Tumor size was assessed every 3 to 4 days until reaching the established ethical endpoints. […]
# MCA205 and B16F10 mouse cell lines are transfected with the plasmid YFP-Globin-SL8-intron or with the PCDNA3 empty plasmid (negative control) with the transfection reagent jetPRIME (Ozyme) or GeneJuice (Millipore) respectively according to each manufacturer protocol. […] Finally, the β-galactosidase activity is measured using the FLUOstar OPTIMA (BMG LABTECH Gmbh, Offenburg, Germany). Results are expressed as mean ±SEM. *P<0.05, **P<0.01, ***P<0.001 (unpaired student t test).
SMILES,"viability at 6.25 µM ([1]; MCA205, 6.25 μM)","viability at 15 µM ([1]; MCA205, 15 μM)","viability at 25 µM ([1]; MCA205, 25 μM)","toxicity (MTT, percentage of viable cells compared to control) [2]",intron-SL8-derived antigen presentation (B3Z activation) [3]
"COc1ccc(-c2cc(=O)c3c(O)cc(O)c(-c4cc(-c5cc(=O)c6c(O)cc(O)cc6o5)ccc4OC)c3o2)cc1 [Isoginkgetin, isoginkgetin]",84.8%,56.3%,51.7%,,
COc1ccc(-c2cc(=O)c3c(OC)cc(OP(=O)([O-])[O-])c(-c4cc(-c5cc(=O)c6c(OC)cc(OP(=O)([O-])[O-])cc6o5)ccc4OC)c3o2)cc1.[Na+].[Na+].[Na+].[Na+] [IM2P2],,,,no toxicity,does not impact it
